Where two headings read alike, the source gives them in different places.
What was measured:
[1] = target: 3CLpro of MERS-CoV (Middle East respiratory syndrome-related coronavirus, UniProt K9N7C7); assay: biochemical; format: biochemical
[2] = Nonspecific cytotoxic effects (CC50), CytoTox 96 kit
[3] = target: T1, 3CLpro of SARS-CoV-2 (Severe acute respiratory syndrome coronavirus 2, UniProt P0DTD1); assay: biochemical; format: biochemical
T1 construct: The codon-optimized cDNA of full length of 3CLpro of SARS-CoV-2; 6xHis (N); made in house; pET-28a(+) vector (points to E. coli, my inference)

Sequence of 3CLpro of MERS-CoV (K9N7C7 3248-3553 limits assumed): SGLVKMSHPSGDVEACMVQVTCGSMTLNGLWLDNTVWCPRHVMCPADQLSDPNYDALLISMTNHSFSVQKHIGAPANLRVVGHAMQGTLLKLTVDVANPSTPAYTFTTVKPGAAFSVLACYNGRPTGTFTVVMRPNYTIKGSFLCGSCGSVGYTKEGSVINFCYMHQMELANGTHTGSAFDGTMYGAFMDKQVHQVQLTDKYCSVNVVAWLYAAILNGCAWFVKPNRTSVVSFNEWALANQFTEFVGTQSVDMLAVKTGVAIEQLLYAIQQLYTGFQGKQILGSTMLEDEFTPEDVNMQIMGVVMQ

SMILES	IC50 ([1]; read-out: IC50) [µM]	CC50 at 72 h [2] [µM]	IC50 [1] [µM]	IC50 [3] [µM]	fold more potent than the corresponding 24b/c aldehyde and bisulfite adducts [3] [fold]	IC50 ([3]; read-out: IC50 against 3CLpro) [µM]
CCCC(OC(=O)N[C@@H](CC(C)C)C(=O)N[C@@H](C[C@@H]1CCNC1=O)C(O)S(=O)(=O)O)c1ccccc1 (mixture of isomers) [Compound 23c, Sodium(2S)-1-hydroxy-2-((2S)-4-methyl-2-(((1-phenylbutoxy)carbonyl)amino)pentanamido)-3-((S)-2-oxopyrrolidin-3-yl)propane-1-sulfonate]	0.13	> 100	–	–	–	–
CCCCC1CCC(OC(=O)NC(CC(C)C)C(=O)NC(CC2CCNC2=O)C(O)S(=O)(=O)O)CC1 [Compound 4c, Sodium (2S)-2-((S)-2-(((((1s,4S)-4-butylcyclohexyl)oxy)carbonyl)amino)-4-methylpentan amido)-1-hydroxy-3-((S)-2-oxopyrrolidin-3-yl)propane-1-sulfonate]	–	> 100	0.15	–	–	–
CC(C)C[C@H](NC(=O)OCCCC1CCCCC1)C(=O)N[C@@H](C[C@@H]1CCNC1=O)C(O)S(=O)(=O)O (stereo partly drawn) [Compound 7f (Scheme 1), sodium (2S)-2-((S)-2-(((3-cyclohexylpropoxy)carbonyl)amino)-4-methylpentanamido)-1-hydroxy-3-((S)-2-oxopyrrolidin-3-yl)propane-1-sulfonate]	–	> 100	0.64	–	–	–
O=C(N[C@@H](CC1CCCCC1)C(=O)N[C@@H](C[C@@H]1CCNC1=O)C(O)S(=O)(=O)O)OC1CCC(F)(F)CC1 (stereo partly drawn) [Compound 7i (Scheme 1), sodium (2S)-2-((S)-3-cyclohexyl-2-((((4,4-difluorocyclohexyl)oxy)carbonyl)amino)propan-amido)-1-hydroxy-3-((S)-2-oxopyrrolidin-3-yl)propane-1-sulfonate]	–	> 100	> 50	–	–	–
CC(C)C[C@H](NC(=O)OCc1ccc(F)cc1)C(=O)N[C@@H](C[C@@H]1CCNC1=O)C(O)S(=O)(=O)O (stereo partly drawn) [Compound 19c, Sodium (2S)-2-((S)-2-((((4-fluorobenzyl)oxy)carbonyl)amino)-4-methylpentanamido)-1-hydroxy-3-((S)-2-oxopyrrolidin-3-yl)propane-1-sulfonate]	–	> 100	–	0.38	–	–
[2H]C([2H])(OC(=O)N[C@@H](CC(C)C)C(=O)N[C@H](C=O)CC1CCNC1=O)c1c(F)c(F)c(F)c(F)c1F (stereo partly drawn) [Compound 22b, (Perfluorophenyl)methyl-d2 ((2S)-4-methyl-1-oxo-1-(((2S)-1-oxo-3-(2-oxopyrrolidin-3-yl)propan-2-yl)amino)pentan-2-yl) carbamate]	–	> 100	–	0.63	–	–
[2H]C([2H])(OC(=O)N[C@@H](CC(C)C)C(=O)N[C@@H](CC1CCNC1=O)C(O)S(=O)(=O)O)c1c(F)c(F)c(F)c(F)c1F (stereo partly drawn) [Compound 22c, Sodium (2S)-1-hydroxy-2-((S)-4-methyl-2-((((perfluorophenyl)methoxy-d2)carbonyl)amino)pentanamido)-3-(2-oxopyrrolidin-3-yl) propane-1-sulfonate]	–	> 100	–	0.45	–	–
CCCC(OC(=O)N[C@@H](CC(C)C)C(=O)N[C@H](C=O)C[C@@H]1CCNC1=O)c1ccccc1 (stereo partly drawn) [Compound 23b, 1-Phenylbutyl ((S)-4-methyl-1-oxo-1-(((S)-1-oxo-3-((S)-2-oxopyrrolidin-3-yl)propan-2-yl)amino)pentan-2-yl)carbamate]	–	> 100	–	–	27	0.15
CC(C)C[C@H](NC(=O)OC(Cc1ccccc1)c1ccccc1)C(=O)N[C@H](C=O)C[C@@H]1CCNC1=O (stereo partly drawn) [Compound 24b, 1,2-Diphenylethyl ((S)-4-methyl-1-oxo-1-(((S)-1-oxo-3-((S)-2-oxopyrrolidin-3-yl)propan-2-yl)amino)pentan-2-yl)carbamate]	–	> 100	–	4.1	–	–
CC(C)C[C@H](NC(=O)OC(Cc1ccccc1)c1ccccc1)C(=O)N[C@@H](C[C@@H]1CCNC1=O)C(O)S(=O)(=O)O (stereo partly drawn) [Compound 24c, Sodium (2S)-2-((2S)-2-(((1,2-diphenylethoxy)carbonyl)amino)-4-methylpentanamido)-1-hydroxy-3-((S)-2-oxopyrrolidin-3-yl)propane-1-sulfonate]	–	> 100	–	3.5	–	–
